Where “and” joins values, the source holds several entries; their conditions need not be identical. Equal values may be shown once. Toxic doses and inconclusive results are not listed. No stated cut-off is given here; in the data, active means T/C of 150% or more; inactive means T/C below 125%.
Tested on: L1210 leukemia ip in BDF1 mice, survival T/C
Assay: NCI In Vivo Anticancer Drug Screen. Data for tumor model L1210 Leukemia (intraperitoneal) in B6D2F1 (BDF1) mice
Details: endpoint: mean survival time, higher = longer survival
Procedure, shortened: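 In this screen, tumor-bearing mice given compound are compared to those given vehicle, and their survival values are reported as a treated-to-control quotient.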

[1] = dose: 50.0 mg/kg/injection, schedule: Q01DX009 (ip), vehicle: saline with Tween-80
[2] = dose: 100.0 mg/kg/injection, schedule: Q04DX003 (ip), vehicle: saline with Tween-80
[3] = dose: 200.0 mg/kg/injection, schedule: Q04DX003 (ip), vehicle: saline with Tween-80
[4] = dose: 400.0 mg/kg/injection, schedule: Q04DX003 (ip), vehicle: saline with Tween-80
[5] = dose: 100.0 mg/kg/injection, schedule: Q01DX001 (ip), vehicle: other
[6] = dose: 200.0 mg/kg/injection, schedule: Q01DX001 (ip), vehicle: other
[7] = dose: 400.0 mg/kg/injection, schedule: Q01DX001 (ip), vehicle: other
[8] = dose: 100.0 mg/kg/injection, schedule: Q01DX009 (ip), vehicle: saline with Tween-80
[9] = dose: 200.0 mg/kg/injection, schedule: Q01DX009 (ip), vehicle: saline with Tween-80
[10] = dose: 100.0 mg/kg/injection, schedule: Q04DX003 (ip), vehicle: Klucel (hydroxypropylcellulose) (HPC)
[11] = dose: 100.0 mg/kg/injection, schedule: Q01DX001 (ip), vehicle: Klucel (hydroxypropylcellulose) (HPC)
[12] = dose: 200.0 mg/kg/injection, schedule: Q01DX001 (ip), vehicle: Klucel (hydroxypropylcellulose) (HPC)
[13] = dose: 200.0 mg/kg/injection, schedule: Q04DX002 (ip), vehicle: Klucel (hydroxypropylcellulose) (HPC)
[14] = dose: 400.0 mg/kg/injection, schedule: Q04DX002 (ip), vehicle: Klucel (hydroxypropylcellulose) (HPC)
[15] = dose: 100.0 mg/kg/injection, schedule: Q01DX001 (ip), vehicle: saline
[16] = dose: 200.0 mg/kg/injection, schedule: Q01DX001 (ip), vehicle: saline
[17] = dose: 400.0 mg/kg/injection, schedule: Q01DX009 (ip), vehicle: saline with Tween-80
[18] = dose: 100.0 mg/kg/injection, schedule: Q04DX002 (ip), vehicle: Klucel (hydroxypropylcellulose) (HPC)

Measured: T/C

C=C(C)C1CCCC(Cc2cccc3c(Cl)cccc23)C1 (configuration not stated)
inactive: dose: 100.0 mg/kg/injection, schedule: Q01DX001 (ip), vehicle: gum acacia 97 % of control | dose: 200.0 mg/kg/injection, schedule: Q01DX001 (ip), vehicle: gum acacia 94 % of control | dose: 400.0 mg/kg/injection, schedule: Q01DX001 (ip), vehicle: gum acacia 99 % of control

COc1cc2c(cc1OC)-c1cc3cc(OC)c(OC)cc3c(C)[n+]1CC2 (tested in a mixture with another compound)
inactive: dose: 12.5 mg/kg/injection, schedule: Q04DX002 (ip), vehicle: Klucel (hydroxypropylcellulose) (HPC) 110 % of control | dose: 25.0 mg/kg/injection, schedule: Q01DX009 (ip), vehicle: saline with Tween-80 104 % of control | dose: 25.0 mg/kg/injection, schedule: Q04DX002 (ip), vehicle: Klucel (hydroxypropylcellulose) (HPC) 106 % of control | [1] 107 % of control | dose: 50.0 mg/kg/injection, schedule: Q04DX002 (ip), vehicle: Klucel (hydroxypropylcellulose) (HPC) 95 % of control

Cc1ccc(NC(=O)Oc2ccc(C(C)(C)C)cc2Br)cc1NC(=O)Oc1ccc(C(C)(C)C)cc1Br
inactive: dose: 100.0 mg/kg/injection, schedule: Q01DX009 (ip), vehicle: other 87 % of control | dose: 200.0 mg/kg/injection, schedule: Q01DX009 (ip), vehicle: other 100 % of control | dose: 400.0 mg/kg/injection, schedule: Q01DX009 (ip), vehicle: other 98 % of control

CC(=O)c1ccc2c(c1)-c1ccccc1C(=O)C2=O
inactive: [2] 89 % of control | [3] 94 % of control | [4] 91 % of control

CCCCCCCC/C=C\CCCCCCCC(=O)OCCCCCC
inactive: dose: 100.0 mg/kg/injection, schedule: Q01DX009 (ip), vehicle: saline sonified 98 % of control | dose: 200.0 mg/kg/injection, schedule: Q01DX009 (ip), vehicle: saline sonified 102 % of control | dose: 400.0 mg/kg/injection, schedule: Q01DX009 (ip), vehicle: saline sonified 93 % of control

COC(=O)/C=C(\C)Nc1ccc(C(=O)C2CCCCC2)cc1
inactive: [5] 90 % of control | [6] 95 % of control | [7] 96 % of control

Cc1cccc(C(C)(C)CO)c1
inactive: [1] 100 % of control | [8] 96 % of control | [9] 96 % of control

CN1CCN(C(=O)C2C(c3ccccc3)C2c2cccc(C(F)(F)F)c2)CC1 (configuration not stated)
inactive: dose: 100.0 mg/kg/injection, schedule: Q04DX002 (ip), vehicle: saline with Tween-80 103 % of control | dose: 200.0 mg/kg/injection, schedule: Q04DX002 (ip), vehicle: saline with Tween-80 98 % of control | dose: 400.0 mg/kg/injection, schedule: Q04DX002 (ip), vehicle: saline with Tween-80 92 % of control

C=CCc1c[nH]c(=O)[nH]c1=O.[Hg]
inactive: dose: 12.5 mg/kg/injection, schedule: Q01DX009 (ip), vehicle: Klucel (hydroxypropylcellulose) (HPC) 93 % of control | dose: 25.0 mg/kg/injection, schedule: Q01DX009 (ip), vehicle: Klucel (hydroxypropylcellulose) (HPC) 98 % of control | dose: 25.0 mg/kg/injection, schedule: Q04DX003 (ip), vehicle: Klucel (hydroxypropylcellulose) (HPC) 92 % of control | dose: 50.0 mg/kg/injection, schedule: Q04DX003 (ip), vehicle: Klucel (hydroxypropylcellulose) (HPC) 89 % of control | [10] 97 % of control

CNC(=O)OCC1=CC(=O)C=CC1=O
inactive: dose: 6.25 mg/kg/injection, schedule: Q04DX003 (ip), vehicle: Klucel (hydroxypropylcellulose) (HPC) 92 % of control | dose: 12.5 mg/kg/injection, schedule: Q01DX001 (ip), vehicle: Klucel (hydroxypropylcellulose) (HPC) 93 % of control | dose: 12.5 mg/kg/injection, schedule: Q04DX003 (ip), vehicle: Klucel (hydroxypropylcellulose) (HPC) 94 % of control | dose: 25.0 mg/kg/injection, schedule: Q01DX001 (ip), vehicle: Klucel (hydroxypropylcellulose) (HPC) 96 % of control

COc1cc([N+](=O)[O-])ccc1NC(=O)Oc1ccc(-c2ccccc2)cc1
inactive: dose: 100.0 mg/kg/injection, schedule: Q01DX009 (ip), vehicle: Klucel (hydroxypropylcellulose) (HPC) 95 % of control | dose: 200.0 mg/kg/injection, schedule: Q01DX009 (ip), vehicle: Klucel (hydroxypropylcellulose) (HPC) 95 % of control | dose: 400.0 mg/kg/injection, schedule: Q01DX009 (ip), vehicle: Klucel (hydroxypropylcellulose) (HPC) 98 % of control

CCNC(=O)c1ccccc1-c1ccccc1C(=O)NCC
inactive: [5] 104 % of control

COc1cc([N+](=O)[O-])c(Cl)cc1NS(=O)(=O)c1ccc(C)cc1
inactive: [11] 98 % of control | [12] 95 % of control | dose: 400.0 mg/kg/injection, schedule: Q01DX001 (ip), vehicle: Klucel (hydroxypropylcellulose) (HPC) 90 % of control

N#CCOC(=O)c1ccc[nH]1
inactive: dose: 10.0 mg/kg/injection, schedule: Q01DX001 (ip), vehicle: acetone 101 % of control | dose: 20.0 mg/kg/injection, schedule: Q01DX001 (ip), vehicle: acetone 100 % of control | dose: 40.0 mg/kg/injection, schedule: Q01DX001 (ip), vehicle: acetone 97 % of control

O=C(Cc1ccccc1)Nc1ccc(Nc2ccccc2)cc1
inactive: [13] 100 % of control | [14] 95 % of control

O=C(O)c1cccc([N+](=O)[O-])c1C(=O)c1ccccc1
inactive: [2] 95 % of control | [3] 97 % of control | [4] 93 % of control

O=C1CCC(N2C(=O)C3CC=CCC3C2=O)C(=O)N1 (configuration not stated)
inactive: dose: 100.0 mg/kg/injection, schedule: Q04DX003 (ip), vehicle: saline 104 % of control and 109 % of control | dose: 200.0 mg/kg/injection, schedule: Q04DX003 (ip), vehicle: saline 104 % of control and 106 % of control | dose: 400.0 mg/kg/injection, schedule: Q04DX003 (ip), vehicle: saline 97 % of control and 112 % of control

NC(=O)c1ncn(C2OC(CO)C(O)C2O)c1N (configuration not stated)
inactive: dose: 50.0 mg/kg/injection, schedule: Q01DX001 (ip), vehicle: saline 111 % of control | [15] 111 % of control | [16] 114 % of control

CS(=O)(=O)c1cccc(N)c1
inactive: [15] 102 % of control | [16] 91 % of control | dose: 400.0 mg/kg/injection, schedule: Q01DX001 (ip), vehicle: saline 98 % of control

O=C1NC(=O)C(c2ccc(C(F)(F)F)cc2)(c2ccc(C(F)(F)F)cc2)N1
inactive: [8] 98 % of control | [2] 92 % of control | [9] 90 % of control | [3] 96 % of control | [17] 86 % of control | [4] 89 % of control

CCOP(=O)(Oc1ccc([N+](=O)[O-])cc1)c1cccc(Cl)c1 (configuration not stated)
inactive: dose: 5.0 mg/kg/injection, schedule: Q01DX001 (ip), vehicle: saline 102 % of control | dose: 10.0 mg/kg/injection, schedule: Q01DX001 (ip), vehicle: saline 111 % of control

NC(=O)c1c(F)c(F)c(N)c(F)c1F
inactive: [18] 96 % of control | [13] 93 % of control | [14] 118 % of control

O=C(/C(=N/O)c1ccccc1)c1ccccc1
inactive: dose: 50.0 mg/kg/injection, schedule: Q01DX001 (ip), vehicle: other 103 % of control | [5] 97 % of control | [6] 105 % of control | [7] 100 % of control

Nc1nc2c(ncn2-c2ccc(OCCCOc3ccc(S(=O)(=O)F)cc3)cc2)c(=O)[nH]1
inactive: [11] 94 % of control | [12] 91 % of control

CCOC(=O)CCSc1ccc(NC(C)=O)cc1
inactive: dose: 100.0 mg/kg/injection, schedule: Q01DX001 (ip), vehicle: saline with Tween-80 103 % of control | dose: 200.0 mg/kg/injection, schedule: Q01DX001 (ip), vehicle: saline with Tween-80 111 % of control | dose: 400.0 mg/kg/injection, schedule: Q01DX001 (ip), vehicle: saline with Tween-80 97 % of control

O=C1c2cccc3cccc(c23)C(=O)N1CCCN1C(=O)c2cccc3cccc(c23)C1=O
inactive: [18] 88 % of control | [13] 98 % of control

OCCc1cc2ccccc2s1
inactive: [10] 107 % of control | dose: 200.0 mg/kg/injection, schedule: Q04DX003 (ip), vehicle: Klucel (hydroxypropylcellulose) (HPC) 103 % of control | dose: 400.0 mg/kg/injection, schedule: Q04DX003 (ip), vehicle: Klucel (hydroxypropylcellulose) (HPC) 113 % of control

CCOC(=O)c1ccc(NC(=O)Nc2ccc(SC)cc2)cc1N(CC)CC
inactive: [8] 104 % of control | [9] 94 % of control | [17] 92 % of control

Source: PubChem BioAssay AID248 (DTP/NCI, 2004)
